Measurements reported in patent publication US10221185B2, “Crystal form of substituted aminopyran derivativek” (Sichuan Haisco Pharmaceutical Co., Ltd., priority 2015, dated 2019).

Legend:
Type in all cases: physicochemical
[1] = Stability of crystal forms of Compound A kept dry at room temperature; settings: Kept dry at room temperature for 14 d
[2] = Slurry competition experiments of crystal forms of Compound A at room temperature
Excerpt: 2. Room temperature competition experiment between Crystal form I and Crystal forms II, III, IV of Compound A, examining the stability of the crystal forms in solvents such as water, ethanol, and water:ethanol (1:1) at room temperature, see Table 2 for details.

[3] = Chemical stability of Crystal form IV of Compound A (influencing factors: high temperature, light exposure, high humidity)
Excerpt: A sample was investigated under the conditions and sampling time points shown in Table 4 below for influencing factors, and the results are shown in Table 5 below.

[4] = High humidity (92.5% RH), unsealed, 10 d
[5] = High humidity (92.5% RH), unsealed, 60 d
[6] = High temperature, unsealed, 40° C., 10 d
[7] = High temperature, unsealed, 40° C., 60 d
[8] = High temperature, unsealed, 60° C., 10 d
[9] = High temperature, unsealed, 60° C., 60 d

## CS(=O)(=O)n1cc2c(n1)CN([C@@H]1C[C@H](N)[C@@H](c3cc(F)ccc3F)O[C@@H]1C(F)(F)F)C2 [Crystal form II, (2R,3S,5R,6S)-2-(2,5-difluorophenyl)-5-(2-(methylsulfonyl)pyrrolo[3,4-c]pyrazol-5(2H,4H,6H)-yl)-6-(trifluoromethyl)tetrahydro-2H-pyran-3-amine]
[1]
  Crystal form after transformation: Crystal form II
  Stability of crystal form (conclusion in words): good stability

## CS(=O)(=O)n1cc2c(n1)CN([C@@H]1C[C@H](N)[C@@H](c3cc(F)ccc3F)O[C@@H]1C(F)(F)F)C2 [Crystal form III, (2R,3S,5R,6S)-2-(2,5-difluorophenyl)-5-(2-(methylsulfonyl)pyrrolo[3,4-c]pyrazol-5(2H,4H,6H)-yl)-6-(trifluoromethyl)tetrahydro-2H-pyran-3-amine]
[1]
  Crystal form after transformation: Crystal form III
  Stability of crystal form (conclusion in words): good stability

## CS(=O)(=O)n1cc2c(n1)CN([C@@H]1C[C@H](N)[C@@H](c3cc(F)ccc3F)O[C@@H]1C(F)(F)F)C2 [Crystal form IV of Compound A, (2R,3S,5R,6S)-2-(2,5-difluorophenyl)-5-(2-(methylsulfonyl)-pyrrolo[3,4]pyrazol-5(2H,4H,6H)-yl)-6-(trifluoromethyl)tetrahydro-2H-pyran-3-amine]
[1]
  Crystal form after transformation: Crystal form IV
  Stability of crystal form (conclusion in words): good stability
[2]
  Relative stability of crystal forms (conclusion in words): the most stable crystal form at room temperature
[3]; 0 d
  Appearance: Off-white
  Moisture: 0.19%
  Purity of Compound A: 99.67%
[3]; [4]
  Appearance: Light yellow
  Moisture: 0.27%
  Purity of Compound A: 99.57%
[3]; [5]
  Appearance: Light yellow
  Moisture: 0.20%
  Purity of Compound A: 99.28%
[3]; [6]
  Appearance: Light yellow
  Moisture: 0.25%
  Purity of Compound A: 99.54%
[3]; [7]
  Appearance: Light yellow
  Moisture: 0.18%
  Purity of Compound A: 99.43%
[3]; [8]
  Appearance: Light yellow
  Moisture: 0.36%
  Purity of Compound A: 99.48%
[3]; [9]
  Appearance: Light yellow
  Moisture: 0.15%
  Purity of Compound A: 99.15%
[3]; Light exposure, unsealed, 10 d
  Appearance: Off-white
  Moisture: 0.32%
  Purity of Compound A: 99.51%
[3]; Light exposure, unsealed, 60 d
  Appearance: Off-white
  Moisture: 0.16%
  Purity of Compound A: 99.43%
